{"source": "patent US12144792B2", "about": "“Therapeutic agents for neurodegenerative diseases” (priority 2016, dated 2024)", "key": {"[1]": {"system": "patient with frontotemporal dementia with parkinsonism", "assay": "Case study, clinical examination", "format": "in vivo, human", "description": "After approximately one month of acetyl-leucine treatment, medication was stopped and the patient was re-examined 13 days later."}, "[2]": {"system": "patient with spinocerebellar ataxia 28 (SCA 28)", "assay": "Case study, clinical evaluation", "format": "in vivo, human", "conditions": "Ex. 14, SCA 28; 5 g per day; after about one month", "method": "A gait analysis was performed before treatment commenced. After about one month of treatment, medication was stopped and the patient was evaluated. […] The patient reported that they no longer walked like a robot and could climb the stairs without using the banisters."}, "[3]": {"system": "patients with progressive supranuclear palsy", "assay": "Case studies, clinical examination", "format": "in vivo, human", "conditions": "3 then 5 g per day; for gait and hypokinetic rigid syndrome: 17 days", "method": "After 27 days of acetyl-leucine treatment, medication was stopped and the patient was re-examined 60 days later. […] Gait analysis was performed before treatment commenced. After 17 days of treatment, medication was stopped and the patient was re-examined 4 days later. […] Gait analysis was performed before treatment commenced. After three weeks of treatment, medication was stopped and the patient was re-examined."}, "[4]": {"system": "microtubule-associated protein 1A/1B-light chain 3-phosphatidylethanolamine conjugate (LC3-II)", "assay": "LC3-II levels relative to tubulin loading control", "format": "in vivo, mouse", "conditions": "NPC1−/− mice, 0.1 g/kg body weight daily from 3 weeks of age; sacrificed at 8 weeks", "method": "The Niemann-Pick Disease Type C (NPC) mouse model shares a number of pathological features with Alzheimer's disease (AD) as described herein. […] Mice were sacrificed at 8 weeks of age. Levels of amyloid precursor protein C-terminal fragments (APP-CTFs) were evaluated relative to total amyloid precursor protein (APP) levels in the cerebellum for wild type, untreated wild type NPC1^−/− mice, and AL-treated wild type NPC1^−/− mice. Levels of microtubule-associated protein 1A/1B-light chain 3-phosphatidylethanolamine conjugate (LC3-II) were also evaluated relative to levels of tubulin loading control for wild type, untreated wild type NPC1^−/− mice, and AL-treated wild type NPC1^−/− mice."}, "[5]": {"system": "patients with Tay-Sachs disease", "assay": "Case studies, patient evaluation (SARA, SCAFI, MoCA, mRDS, EQ-5D-5L)", "format": "in vivo, human", "description": "For example, to evaluate overall neurological status, mDRS, a four-domain scale (ambulation, manipulation, language and swallowing), may be applied. Cerebellar function may be evaluated using SARA, an eight-item clinical rating scale (gait, stance, sitting, speech, fine motor function and taxis; range 0-40, where 0 is the best neurological status and 40 the worst), and SCAFI, comprising the 8-m-Walking-Time (8MW; performed by having patients walking twice as quickly as possible from one line to another excluding turning), 9-Hole-Peg-Test (9HPT) and the number of “PATA” repetitions over 10 s. Subjective impairment and quality of life may be evaluated using the EQ-5D-5L questionnaire and VAS. To assess ocular motor function, 3-dimensional videooculography (EyeSeeCam) may be used to measure the peak velocity of saccades, gain of smooth pursuit, peak slow phase velocity of gaze-evoked nystagmus (gaze-holding function), peak slow phase velocity of optokinetic nystagmus, and gain of horizontal vestibulo-ocular reflex. To evaluate the cognitive state, WAIS-R or WISC-W, and MoCA, assessing different cognitive domains, including attention and concentration, executive functions, memory, language, visuoconstructional skills, conceptual thinking, calculations, and orientation with a maximum of 30 points and a cut-off score of 26, may be used. The skilled person will know how to perform these and other such tests.\nBefore treatment was commenced, examination of the patient indicated a Scale for Assessment and Rating of Ataxia (SARA) score of 15.5/40. In addition, results from the patient's Spinocerebellar Ataxia Functional Index (SCAFI) analysis were: • Mean 8-meters Walking Test (8MW): 21.6 s • MW 9-Hole Pegboard Test Dominant (9HPTD) (right): 48.3 s • MW 9-Hole Pegboard Test Non-Dominant (9HPTND): 44.9 s • MW PATA Word Test: 20 • Montreal Cognitive Assessment (MoCA): 18/30\nThe day following this examination, the patient was started on therapy with acetyl-leucine, at a dose of 3 g per day for the first week, followed by a dose of 5 g per day for the second week onwards.\nThe day of the examination, the patient was started on therapy with acetyl-leucine at a dose of 3 g per day for the first week, followed by a dose of 5 g per day for the second week onwards.\nThe patient was started on therapy with acetyl-leucine at a dose of 1.5 g per day for the first week, followed by a dose of 3 g per day for the second week onwards."}, "[6]": {"system": "patients with amyotrophic lateral sclerosis (ALS)", "assay": "Case studies, medical examination", "format": "in vivo, human", "description": "The results were documented by video."}, "patients with vertigo": {"system": "patients with vertigo", "conditions": "used in France to treat acute vertigo since 1957; long-term safety not determined; cited from earlier work"}, "[7]": {"system": "patient with corticobasal syndrome", "assay": "Case study, clinical examination", "format": "in vivo, human", "method": "Gait analysis was performed before treatment commenced. After 20 days of acetyl-leucine treatment, the patient was re-examined. […] After 8 weeks of acetyl-leucine treatment, medication was stopped and the patient was re-examined 6 days later."}, "[8]": {"system": "12 patients with Niemann-Pick Type C (NPC)", "conditions": "one-month study, 12 NPC patients (Bremova et al. 2015); cited from earlier work"}, "[9]": {"conditions": "Ex. 7 Patient 1, ALS, after a further 20 days"}}, "data": [{"smiles": "CC(=O)NC(CC(C)C)C(=O)O", "note": "(racemic) [acetyl-DL-leucine]", "values": [{"measurement": "gait", "setting": "[1]; Ex. 9, frontotemporal dementia with parkinsonism, 3 then 5 gram per day, approximately one month", "result": "significant improvement of gait"}, {"measurement": "speech", "setting": "[1]; Ex. 9, under therapy", "result": "improvement of speech"}, {"measurement": "falls", "setting": "[1]; Ex. 9, under therapy, before 2-3 falls per month", "result": "the patient's falls stopped"}, {"measurement": "symptomatology", "setting": "[2]", "result": "reduced dizziness (almost vanished), and a more stable gait"}, {"measurement": "dizziness and gait", "setting": "[3]; Ex. 11 Patient 1, PSP, 27 days", "result": "significant reduction of dizziness and slight improvement of gait"}, {"measurement": "gait and hypokinetic rigid syndrome", "setting": "[3]; Ex. 11 Patient 2, PSP", "result": "no significant improvement of gait or hypokinetic rigid syndrome"}, {"measurement": "gait and hypokinetic rigid syndrome", "setting": "[3]; Ex. 11 Patient 3, PSP", "result": "no significant improvement of gait or hypokinetic rigid syndrome"}, {"measurement": "gait and falls", "setting": "[3]; Ex. 11 Patient 4, PSP, after three weeks", "result": "gait with increased subjective security and with reduced frequency of falls"}, {"measurement": "LC3-II levels relative to tubulin", "setting": "[4]", "result": "lowering of LC3-II"}, {"measurement": "symptoms on re-examination", "setting": "[5]; Ex. 5 Patient 1, Tay-Sachs, 3 then 5 g per day, after four months", "result": "stable condition with slightly improved cognitive function but had deterioration of stance, gait and fine motor function"}, {"measurement": "symptoms on re-examination", "setting": "[5]; Ex. 5 Patient 1, Tay-Sachs, 3 then 5 g per day, after one month", "result": "improved fine motor skills and reduced hand tremor"}, {"measurement": "symptoms on re-examination", "setting": "[5]; Ex. 5 Patient 2, Tay-Sachs, 3 then 5 g per day, after one month", "result": "increased enunciation, improved postural stability, and enhanced cognitive function"}, {"measurement": "symptoms on re-examination", "setting": "[5]; Ex. 5 Patient 3, Tay-Sachs, 1.5 then 3 g per day, after one month", "result": "improved postural stability, gait and stance, and could speak single words"}, {"measurement": "speech", "setting": "[6]; Ex. 7 Patient 1, ALS, 3 then 5 gram per day, after 15 days", "result": "significant improvement of speech"}, {"measurement": "speech after stopping treatment", "setting": "[6]; Ex. 7 Patient 1, ALS, about 7 days plus 1-2 additional weeks off treatment", "result": "deterioration of speech"}, {"measurement": "paresis of the right foot-dorsiflexors and foot drop", "setting": "[6]; [9]", "result": "improved dramatically and were clinically hardly detectable"}, {"measurement": "sleep", "setting": "[6]; [9]", "result": "improvement in sleep"}, {"measurement": "speech", "setting": "[6]; [9]", "result": "further improvement of speech"}, {"measurement": "symptomatology after resuming treatment", "setting": "[6]; Ex. 7 Patient 1, ALS, resumed after second discontinuation", "result": "improved symptomatology, in particular speech"}, {"measurement": "symptoms on re-examination", "setting": "[6]; Ex. 7 Patient 2, ALS, 3 then 5 g per day, after approximately 2 months", "result": "progredient deterioration of the motor function of the left hand, but a discrete improvement of walking"}, {"measurement": "symptomatology", "setting": "[6]; Ex. 7 Patient 3, ALS, 3 then 5 g per day, after one month", "result": "did not report improvement of symptomatology"}, {"measurement": "symptomatology", "setting": "[6]; Ex. 7 Patient 4, ALS, 3 then 5 g per day, after about one month", "result": "subjective improvement of dysphagia and less hypersalivation"}, {"measurement": "symptomatology after suspension", "setting": "[6]; Ex. 7 Patient 4, ALS, 10 days after therapy was suspended", "result": "worsening of symptomatology"}, {"measurement": "safety profile", "setting": "patients with vertigo", "result": "excellent safety profile"}, {"measurement": "dizziness and falls", "setting": "[7]; Ex. 10, corticobasal syndrome, 3 then 5 g per day, after 20 days", "result": "improvement of dizziness symptoms and significant reduction in the frequency of falls"}, {"measurement": "symptoms after suspension", "setting": "[7]; Ex. 10, medication stopped after 8 weeks", "result": "increase of dizziness symptoms two days after suspension of treatment"}, {"measurement": "ataxia symptoms", "setting": "[8]", "result": "symptomatic improvement of ataxia"}]}]}
